Values after ≈ are worked out from the molar mass of the structure shown.
Experiment: Metabolic stability in mouse liver microsomes assessed as compound remaining after 1 hr
Assay type: ADME
Details: read-out: Stability

| SMILES | remaining at 1 h |
| --- | --- |
| CC(C)C[C@@H](/C=C/CC(=O)NC1CC(C)(C)N([O])C(C)(C)C1)NC(=O)OCC[S+]([O-])CC1(C)COC1 (mixture of isomers) | 16% |

Experiment: Aqueous solubility of the compound in H2O after 24 hrs incubation at 30 degC by LCMS analysis
Assay type: physicochemical
Details: buffer, 24 h

| SMILES | solubility |
| --- | --- |
| Cc1ccc(Cl)c(Nc2ccccc2C(=O)O)c1Cl [MECLOFENAMIC ACID] | 550 µg/mL (≈ 1860 µM) |

Same assay, conditions: water

| solubility at 24 h | SMILES |
| --- | --- |
| 440 µg/mL (≈ 968 µM) | CC1(C[S+]([O-])CCOC(=O)Nc2ccc3sc4c(c3c2)SCCNC4=O)COC1 (centres undefined) |
| 13 µg/mL (≈ 34.7 µM) | COc1ccc2cc([C@H](C)C(=O)OCCSCC3(C)COC3)ccc2c1 |
| 260 µg/mL | C[C@H](CCC(=O)OCC[S+]([O-])CC1(C)COC1)[C@H]1CC[C@H]2[C@@H]3CC[C@@H]4C[C@H](O)CC[C@]4(C)[C@H]3CC[C@]12C (mixture of isomers) |

Second part, the compound before the results:

| SMILES | solubility at 24 h |
| --- | --- |
| CC(C)C[C@@H](/C=C/CC(=O)NC1CC(C)(C)N([O])C(C)(C)C1)NC(=O)OCC[S+]([O-])CC1(C)COC1 (mixture of isomers) | 24000 µg/mL |
| CC1(C[S+]([O-])CCOC(=O)N2CCN(c3cc4c(cc3F)c(=O)c(C(=O)O)cn4C3CC3)CC2)COC1 (centres undefined) | 190 µg/mL (≈ 355 µM) |
| Cc1cc(NS(=O)(=O)c2ccc(NC(=O)OCC[S+]([O-])CC3(C)COC3)cc2)no1 (centres undefined) | 1000 µg/mL (≈ 2190 µM) |
| COc1ccc2cc([C@H](C)C(=O)OCCS(=O)(=O)CC3(C)COC3)ccc2c1 | 63 µg/mL (≈ 155 µM) |
| COc1ccc2cc([C@H](C)C(=O)OCC[S+](C)[O-])ccc2c1 (some centres undefined) | 270 µg/mL (≈ 843 µM) |
| CCOC(=O)Nc1ccc2sc3c(c2c1)SCCNC3=O | 67 µg/mL (≈ 208 µM) |
| Cc1ccc(Cl)c(Nc2ccccc2C(=O)OCC[S+]([O-])CC2(C)COC2)c1Cl (centres undefined) | 250 µg/mL (≈ 548 µM) |
| COc1ccc2cc([C@H](C)C(=O)OCC[S+]([O-])CC3(C)COC3)ccc2c1 (mixture of isomers) | 820 µg/mL |
| CC(C)C[C@@H](/C=C/CC(=O)NC1CC(C)(C)N([O])C(C)(C)C1)NC(=O)OC(C)(C)C | 250 µg/mL (≈ 589 µM) |
